The results in this text go back to patent US20240352000A1, “NOVEL PYRIMIDINE-2,4-DIAMINE DERIVATIVES, PREPARATION METHOD THEREFOR, AND PHARMACEUTICAL COMPOSITION CONTAINING SAME AS ACTIVE INGREDIENT FOR PREVENTION OR TREATMENT OF CANCER” (KOREA RESEARCH INSTITUTE OF CHEMICAL TECHNOLOGY, priority 2021, published 2024).

Experiment [1] deals with Ba/F3 EGFR L858R/T790M/C797S. Nature of the experiment: CellTiter-Glo cell viability, Ba/F3 EGFR L858R/T790M/C797S. The class given is cell-based. Particulars: 72 hours. The method, then: (§1) An experiment to measure the activity of the compounds of the present invention against the mutant Ba/F3 EGFR cell line was performed as follows using the CellTiter-Glo system sold by Promega. The CellTiter-Glo assay is a method to confirm the cell viability by measuring ATP present in cells in cell culture. The Ba/F3 EGFR L858R, Ba/F3 EGFR L858R/T790M, Ba/F3 EGFR L858R/T790M/C797S mutant cell line was used. The Ba/F3 EGFR L858R, Ba/F3 EGFR L858R/T790M, and Ba/F3 EGFR L858R/T790M/C797S mutant cell lines was cultured in RPMI containing 10% FBS and 1% penicillin-streptomycin with 1 μg of puromycin in an incubator at 37° C. and 5% CO2.
(§2) Analysis of the inhibitory ability effect of the compounds against EGFR was conducted according to the following analysis reaction recipe.
(§3) 2500 cells/90 μl were passaged and cultured in a 96-well cell culture plate, and after 24 hours, treated with the compound represented by Formula 1 at a concentration of 0, 0.01, 0.03, 0.1, 0.3, 1, 3, and 10 (μM). After reaction for 72 hours, the plate treated with the compound was left at room temperature for 30 minutes, then further treated with 100 μl of reagent, and shaken at room temperature for 10 minutes. Finally, the ratio of fluorescence values at 570 nm was obtained using the equipment to quantitatively measure and confirmed the inhibitory ability of the compounds. The measurement values measured at eight compound concentrations were analyzed using the Prism program (version 5.01, Graphpad Software, Inc.), and the IC50 value, which is an indicator of the inhibitory ability of the compound, was calculated.
A general note: Cellular ATP, detected with luciferase, serves as a proxy for viable cell number.

For the next experiment, the system named is Ba/F3 EGFR L858R/T790M. Nature of the experiment: CellTiter-Glo cell viability, Ba/F3 EGFR L858R/T790M. The class given is cell-based. Conditions: 72 hours. The method, then:
as §1, §2, §3

In experiment [2] the test system is Ba/F3 EGFR del19/T790M/C797S. Nature of the experiment: CellTiter-Glo cell viability, Ba/F3 EGFR del19/T790M/C797S. The class given is cell-based. Conditions: 72 hours. The method, then:
(§4) An experiment to measure the activity of the compounds of the present invention against the mutant Ba/F3 EGFR cell line was performed as follows using the CellTiter-Glo system sold by Promega. The CellTiter-Glo assay is a method to confirm the cell viability by measuring ATP present in cells in cell culture. For the Ba/F3 EGFR del19, Ba/F3 EGFR del19/T790M, Ba/F3 del19/T790M/C797S mutant cell line, a cell line provided by Crown Bioscience was purchased and used. The Ba/F3 EGFR del19, Ba/F3 EGFR del19/T790M, Ba/F3 del19/T790M/C797S mutant cell line was cultured in RPMI containing 10% FBS and 1% penicillin-streptomycin with 1 μg of puromycin in an incubator at 37° C. and 5% CO2.
as §2
as §3, with “cells/90 μL” for “cells/90 μl”

In the next experiment the test system is Ba/F3 EGFR del19. Nature of the experiment: CellTiter-Glo cell viability, Ba/F3 EGFR del19. The class given is cell-based. Conditions: 72 hours. The method, then:
as §4, §2
as §3, with “cells/90 μL” for “cells/90 μl”

Another experiment relates to Ba/F3 EGFR del19/T790M. Nature of the experiment: CellTiter-Glo cell viability, Ba/F3 EGFR del19/T790M. The class given is cell-based. Particulars: 72 hours. The method, then:
as §4, §2
as §3, with “cells/90 μL” for “cells/90 μl”

A further experiment concerns the target EGFR del19/T790M/C797S (Homo sapiens (Human), UniProt P00533, C797S/DEL746-750/T790M). Nature of the experiment: HTRF enzyme assay, EGFR del19/T790M/C797S mutant enzyme. Conditions: enzyme from SignalChem, 37° C. 2 hours. The class given is biochemical. The method, then:
(§5) An experiment to measure the activity of the compounds of the present invention against EGFR mutant enzymes was performed as follows using the HTRF system sold by Cisbio. For the EGFR del19/T790M mutant enzyme, a recombinant protein provided by Carna Biosciences was purchased and used, and for the EGFR del19/T790M/C797S mutant enzyme, a protein provided by SignalChem was purchased and used as an enzyme source.
(§6) The composition of the assay buffer used for measuring the activity was 50 mM Tris-HCl pH 7.5, 100 mM NaCl, 7.5 mM MgCl2, 3 mM KCl, 0.01% Tween 20, 0.1% BSA, and 1 mM DTT. Here, an enzyme reaction was performed using ATP at a concentration of […] and a peptide substrate labeled with biotin at a concentration of […]. Analysis of the inhibitory effect of the compounds against the EGFR activity was conducted according to the following analysis reaction recipe. • Component 1: 4 μL of an EGFR mutant enzyme • Component 2: 2 μL of a compound solution • Component 3: 4 μL of ATP and a peptide labeled with biotin
(§7) The enzyme reaction was started by first mixing Component 1 and Component 2 and then adding Component 3. After reaction at 37° C. for 2 hours, […] of measurement solution consisting of streptavidin-XL665 and europium-labeled anti-phosphotyrosine antibody provided by Cisbio was added to the enzyme reaction solution and reacted at room temperature for 1 hour. Finally, the ratio of fluorescence values at 615 nm and 665 nm was obtained using the Envision equipment from Perkin-Elmer to quantitatively measure the enzyme activity and confirmed the inhibitory ability of the compounds. The measurement values measured at seven compound concentrations were analyzed using the Prism program (version 5.01, Graphpad Software, Inc.), and the IC50 value, which is an indicator of the inhibitory ability of the compound, was calculated.
In general terms: TR-FRET usually uses a lanthanide donor and a delayed reading to cut background.

The subject of the next experiment is Ba/F3 EGFR L858R. Nature of the experiment: CellTiter-Glo cell viability, Ba/F3 EGFR L858R. The class given is cell-based. Particulars: 72 hours. The method, then: as §1, §2, §3
The next experiment deals with EGFR del19/T790M (Homo sapiens (Human), UniProt P00533, DEL746-750/T790M). Nature of the experiment: HTRF enzyme assay, EGFR del19/T790M mutant enzyme. It counts as biochemical. Particulars: recombinant enzyme, 37° C. 2 hours. The method, then:
as §5, §6, §7

Chain of EGFR del19/T790M/C797S (P00533 other isoform, or with tags, fused parts or gaps T790M/C797S/del 1-694/del 746-750 limits assumed): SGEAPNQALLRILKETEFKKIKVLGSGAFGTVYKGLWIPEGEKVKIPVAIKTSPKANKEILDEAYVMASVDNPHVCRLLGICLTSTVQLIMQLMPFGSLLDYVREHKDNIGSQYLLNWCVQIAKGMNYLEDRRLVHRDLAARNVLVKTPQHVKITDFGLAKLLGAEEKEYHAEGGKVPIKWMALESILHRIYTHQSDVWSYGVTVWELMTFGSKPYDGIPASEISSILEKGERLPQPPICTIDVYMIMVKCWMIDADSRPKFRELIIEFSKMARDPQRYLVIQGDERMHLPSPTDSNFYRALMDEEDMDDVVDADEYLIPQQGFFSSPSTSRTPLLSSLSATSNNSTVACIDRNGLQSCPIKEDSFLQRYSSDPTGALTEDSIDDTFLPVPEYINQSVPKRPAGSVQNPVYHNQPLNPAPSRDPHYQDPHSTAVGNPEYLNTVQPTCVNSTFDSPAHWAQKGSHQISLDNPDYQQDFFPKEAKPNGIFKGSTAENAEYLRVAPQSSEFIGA
Chain of EGFR del19/T790M (P00533 other isoform, or with tags, fused parts or gaps T790M/del 1-668/del 746-750 limits assumed): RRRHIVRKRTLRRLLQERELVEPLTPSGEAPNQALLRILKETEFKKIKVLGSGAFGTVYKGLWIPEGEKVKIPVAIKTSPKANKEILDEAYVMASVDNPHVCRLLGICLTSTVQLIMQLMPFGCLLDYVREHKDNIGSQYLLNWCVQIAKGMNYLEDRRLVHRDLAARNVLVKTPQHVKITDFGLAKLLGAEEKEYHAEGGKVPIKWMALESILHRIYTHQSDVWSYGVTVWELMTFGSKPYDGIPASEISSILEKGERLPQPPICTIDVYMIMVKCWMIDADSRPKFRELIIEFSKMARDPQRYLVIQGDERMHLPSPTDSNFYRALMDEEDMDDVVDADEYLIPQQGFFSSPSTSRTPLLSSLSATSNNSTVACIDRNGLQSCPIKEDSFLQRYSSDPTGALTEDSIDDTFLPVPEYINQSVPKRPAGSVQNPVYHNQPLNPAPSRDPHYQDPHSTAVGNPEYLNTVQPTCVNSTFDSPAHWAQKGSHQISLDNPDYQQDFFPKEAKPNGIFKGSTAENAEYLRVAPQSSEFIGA

The term IC50 denotes the point on the concentration scale where inhibition reaches its midpoint. Turning to `COc1cc(N2CCC(N(C)C)CC2)ccc1Nc1ncc(Cl)c(Nc2cccc3c2N(S(C)(=O)=O)CC3)n1` [Example 1, 5-chloro-N2-(4-(4-(dimethylamino)piperidin-1-yl)-2-methoxyphenyl)-N4-(1-(methylsulfonyl)indolin-7-yl)pyrimidine-2,4-diamine], the IC50 in experiment [1] was less than 100 nM; in the experiment on Ba/F3 EGFR L858R/T790M it was less than 30 nM; in experiment [2], less than 100 nM; in the experiment with Ba/F3 EGFR del19, less than 30 nM; in the experiment on Ba/F3 EGFR del19/T790M, less than 30 nM; on EGFR del19/T790M/C797S, less than 1 nM. Besides, the IC50 was less than 30 nM with Ba/F3 EGFR L858R and less than 1 nM at EGFR del19/T790M.

In the case of `COc1cc(N(C)CCN(C)C)ccc1Nc1ncc(Cl)c(Nc2cccc3c2N(S(C)(=O)=O)CC3)n1` [Example 3, 5-chloro-N2-(4-((2-(dimethylamino)ethyl)(methyl)amino)-2-methoxyphenyl)-N4-(1-(methylsulfonyl)indolin-7-yl)pyrimidine-2,4-diamine], the IC50 in the experiment with Ba/F3 EGFR L858R/T790M was greater than 100 nM; in experiment [2], greater than 100 nM; in the experiment with Ba/F3 EGFR del19, less than 100 nM; in the experiment with Ba/F3 EGFR del19/T790M, less than 100 nM; in the experiment on Ba/F3 EGFR L858R, greater than 100 nM.

As to `COc1cc(N2CCC(N(C)C)CC2)ccc1Nc1ncc(Cl)c(Nc2cccc3c2N(S(C)(=O)=O)CCC3)n1` [Example 4, 5-chloro-N2-(4-(4-(dimethylamino)piperidin-1-yl)-2-methoxyphenyl)-N4-(1-(methylsulfonyl)-1,2,3,4-tetrahydroquinolin-8-yl)pyrimidine-2,4-diamine], the concentration for half-maximal inhibition (IC50) in the experiment on Ba/F3 EGFR L858R/T790M is less than 100 nM; in experiment [2], less than 30 nM; with Ba/F3 EGFR del19 it was less than 30 nM; in the experiment on Ba/F3 EGFR del19/T790M, less than 30 nM; at EGFR del19/T790M/C797S, less than 1 nM; in the experiment with Ba/F3 EGFR L858R, less than 100 nM. Moreover, at EGFR del19/T790M, the IC50 is less than 1 nM.

In the case of `COc1cc(N(C)CCN(C)C)ccc1Nc1ncc(Cl)c(Nc2cccc3c2N(S(C)(=O)=O)CCC3)n1` [Example 6, 5-chloro-N2-(4-((2-(dimethylamino)ethyl)(methyl)amino)-2-methoxyphenyl)-N4-(1-(methylsulfonyl)-1,2,3,4-tetrahydroquinolin-8-yl)pyrimidine-2,4-diamine], the IC50 in the experiment with Ba/F3 EGFR L858R/T790M was less than 100 nM; in experiment [2], greater than 100 nM; in the experiment with Ba/F3 EGFR del19 it was less than 100 nM; with Ba/F3 EGFR del19/T790M, less than 100 nM; on EGFR del19/T790M/C797S it was less than 1 nM; in the experiment on Ba/F3 EGFR L858R it was greater than 100 nM. On EGFR del19/T790M, the concentration for half-maximal inhibition (IC50) is 1 nM.

Take `COc1cc(N2CCC(N3CCN(C)CC3)CC2)ccc1Nc1ncc(C)c(Nc2cccc3c2N(S(C)(=O)=O)CC3)n1` [Example 7, N2-(2-methoxy-4-(4-(4-methylpiperazin-1-yl)piperidin-1-yl)phenyl)-5-methyl-N4-(1-(methylsulfonyl)indolin-7-yl)pyrimidine-2,4-diamine]: the IC50 was greater than 100 nM in experiment [1]; less than 100 nM with Ba/F3 EGFR L858R/T790M; greater than 100 nM in experiment [2]; less than 30 nM in the experiment on Ba/F3 EGFR del19; less than 100 nM in the experiment with Ba/F3 EGFR del19/T790M; less than 1 nM at EGFR del19/T790M/C797S. Moreover, the IC50 was less than 30 nM in the experiment with Ba/F3 EGFR L858R and less than 1 nM at EGFR del19/T790M.

Consider `COc1cc(N2CCC(N3CCN(C)CC3)CC2)ccc1Nc1ncc(F)c(Nc2cccc3c2N(S(C)(=O)=O)CC3)n1` [Example 8, 5-fluoro-N2-(2-methoxy-4-(4-(4-methylpiperazin-1-yl)piperidin-1-yl)phenyl)-N4-(1-(methylsulfonyl)indolin-7-yl)pyrimidine-2,4-diamine], for which the IC50 is greater than 100 nM in experiment [1]; less than 100 nM with Ba/F3 EGFR L858R/T790M; greater than 100 nM in experiment [2]; less than 100 nM in the experiment on Ba/F3 EGFR del19; greater than 100 nM in the experiment with Ba/F3 EGFR del19/T790M; less than 1 nM against EGFR del19/T790M/C797S. Besides, the IC50 is less than 30 nM with Ba/F3 EGFR L858R and less than 1 nM on EGFR del19/T790M.

In the case of `COc1cc(N2CCC(N3CCN(C)CC3)CC2)ccc1Nc1ncc(C(F)(F)F)c(Nc2cccc3c2N(S(C)(=O)=O)CC3)n1` [Example 9, N2-(2-methoxy-4-(4-(4-methylpiperazin-1-yl)piperidin-1-yl)phenyl)-N4-(1-(methylsulfonyl)indolin-7-yl)-5-(trifluoromethyl)pyrimidine-2,4-diamine], the IC50 in experiment [1] is greater than 100 nM; in the experiment on Ba/F3 EGFR L858R/T790M, less than 30 nM; in experiment [2], greater than 100 nM; in the experiment on Ba/F3 EGFR del19 it was less than 30 nM; in the experiment with Ba/F3 EGFR del19/T790M, less than 30 nM; against EGFR del19/T790M/C797S it was less than 1 nM. Besides, the figures for the IC50 in the experiment on Ba/F3 EGFR L858R and on EGFR del19/T790M were less than 100 nM and less than 1 nM, respectively.

Consider `COc1cc(N2CCC(N3CCN(C)CC3)CC2)ccc1Nc1ncc(C(=O)OC(C)C)c(Nc2cccc3c2N(S(C)(=O)=O)CC3)n1` [Example 10, isopropyl 2-((2-methoxy-4-(4-(4-methylpiperazin-1-yl)piperidin-1-yl)phenyl)amino)-4-((1-(methylsulfonyl)indolin-7-yl)amino)pyrimidine-5-carboxylate], for which the IC50 in experiment [1] was greater than 100 nM; in the experiment on Ba/F3 EGFR L858R/T790M it was greater than 100 nM; in experiment [2] it was greater than 100 nM; with Ba/F3 EGFR del19, greater than 100 nM; in the experiment with Ba/F3 EGFR del19/T790M it was greater than 100 nM; on EGFR del19/T790M/C797S, 50 nM. Further, the values for the IC50 in the experiment with Ba/F3 EGFR L858R and on EGFR del19/T790M were less than 100 nM and 60 nM, respectively.

With `COC(=O)c1cnc(Nc2ccc(N3CCC(N4CCN(C)CC4)CC3)cc2OC)nc1Nc1cccc2c1N(S(C)(=O)=O)CC2` [Example 11, methyl 2-((2-methoxy-4-(4-(4-methylpiperazin-1-yl)piperidin-1-yl)phenyl)amino)-4-((1-(methylsulfonyl)indolin-7-yl)amino)pyrimidine-5-carboxylate], the IC50 in experiment [1] is greater than 100 nM; in the experiment on Ba/F3 EGFR L858R/T790M, less than 100 nM; in experiment [2], greater than 100 nM; with Ba/F3 EGFR del19 it was less than 100 nM; in the experiment on Ba/F3 EGFR del19/T790M, greater than 100 nM; at EGFR del19/T790M/C797S, 5 nM. Besides, the IC50 in the experiment on Ba/F3 EGFR L858R is less than 100 nM; on EGFR del19/T790M, 2 nM.
